Results on 30 molecules are retold here after US11865086B2, “Cinnamaldehyde derivative compounds and methods of use for cinnamaldehyde derivative compounds nicotine cessation” (Pacific University, priority 2018, dated 2024).

“Also recorded” adds a separate entry of the source.

The conditions of data set [1]: obtained from PubChem and ChemSpider; cited from earlier work.
Data set [2] addresses T1, CYP2A6 (Homo sapiens, UniProt P11509).
T1 sequence (P11509 1-494): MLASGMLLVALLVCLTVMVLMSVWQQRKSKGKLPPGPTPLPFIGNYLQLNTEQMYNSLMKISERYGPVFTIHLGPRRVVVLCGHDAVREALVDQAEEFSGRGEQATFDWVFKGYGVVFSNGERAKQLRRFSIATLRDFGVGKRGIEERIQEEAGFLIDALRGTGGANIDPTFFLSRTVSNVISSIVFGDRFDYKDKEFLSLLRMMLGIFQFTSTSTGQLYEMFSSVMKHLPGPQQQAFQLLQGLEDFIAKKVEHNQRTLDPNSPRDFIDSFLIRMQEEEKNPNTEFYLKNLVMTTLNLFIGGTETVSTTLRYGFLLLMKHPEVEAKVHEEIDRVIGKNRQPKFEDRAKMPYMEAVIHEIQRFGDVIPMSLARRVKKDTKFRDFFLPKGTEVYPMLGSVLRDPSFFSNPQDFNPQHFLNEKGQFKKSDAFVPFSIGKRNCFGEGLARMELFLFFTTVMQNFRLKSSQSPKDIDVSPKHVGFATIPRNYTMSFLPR
Description: in vitro.
Description: (§1) Since this type of inhibition also requires that the inhibitor is initially metabolized by the target enzyme, MBIs may be identified by evaluating the inhibition in the presence and absence of cofactors that are required for activity, such as NADPH for CYPs.

Data set [3] has as its target T1, CYP2A6. Description: biochemical.
Description: (§2) A 96-well plate assay and fluorescence spectroscopy may be used to quantify the product, 7-hydroxycoumarin.
Data was fit using GraphPad Prism.
In data set [4] the target is T2, CYP2A6 (Homo sapiens, UniProt P11509, K28S/Q25K/Q26K/R27T/W24A).
T2 sequence (P11509 with tags, fused parts or gaps limits assumed): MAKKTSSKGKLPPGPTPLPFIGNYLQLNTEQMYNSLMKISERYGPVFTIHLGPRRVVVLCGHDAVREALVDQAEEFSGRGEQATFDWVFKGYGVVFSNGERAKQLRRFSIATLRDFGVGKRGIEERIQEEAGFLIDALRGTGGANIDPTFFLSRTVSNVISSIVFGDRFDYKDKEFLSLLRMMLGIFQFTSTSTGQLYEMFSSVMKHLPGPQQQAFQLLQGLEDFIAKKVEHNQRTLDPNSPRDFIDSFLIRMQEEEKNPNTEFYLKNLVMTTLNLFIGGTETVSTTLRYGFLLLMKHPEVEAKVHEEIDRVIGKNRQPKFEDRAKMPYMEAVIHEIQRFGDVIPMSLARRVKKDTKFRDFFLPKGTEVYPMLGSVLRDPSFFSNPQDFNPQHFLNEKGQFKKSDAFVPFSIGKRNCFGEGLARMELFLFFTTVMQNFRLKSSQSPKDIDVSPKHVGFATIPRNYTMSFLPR
Description: biochemical.
Description: (§3) Spectral binding studies were conducted using purified heterologously expressed CYP2A6 in Escherichia coli. […] Absorbance changes (A386-A418) may be plotted against added ligand concentrations in order to determine dissociation constants.
(§4) In more detail, the CYP2A6 enzyme may be heterologously expressed in Escherichia coli and purified. The expression vector, pKK2A6dH may be used to express the enzyme. The vector contains a cDNA sequence that codes for human CYP2A6 with a deletion of the N-terminal transmembrane sequence, an alteration of several residues at the modified N-terminus to increase expression, and four histidine residues added at the C-terminus to aid in purification. […] Expression from the vector may be induced with the addition of IPTG to bacterial cultures. δ-Aminolevulinic acid is added during expression to supplement heme biosynthesis. The enzyme may be purified following previously reported protocols. Briefly, following cell disruption, the solubilized enzyme may be purified using Ni^2+-affinity chromatography and cation-exchange (CM sepharose) chromatography, which may lead to protein of high purity and P450 content.

The target in data set [5] is T1, CYP2A6. Description: biochemical. The source holds these as a separate data set.
Description: as §1
The target in data set [6] is T1, CYP2A6. Description: Time-dependent inhibition screen, recombinant CYP2A6 system, coumarin hydroxylase readout. To be noted: for Fold difference (with respect to CA): kinact/kI relative to t-CA; for time-dependent inhibition of CYP2A6, result in words: with NADPH, 7-hydroxycoumarin formation; for kinact / kinact/kI: Table 5.
Description: as §1
Data set [7] has as its target T3, recombinant CYP2A13 (Homo sapiens, UniProt Q16696).
T3 sequence (Q16696 1-494): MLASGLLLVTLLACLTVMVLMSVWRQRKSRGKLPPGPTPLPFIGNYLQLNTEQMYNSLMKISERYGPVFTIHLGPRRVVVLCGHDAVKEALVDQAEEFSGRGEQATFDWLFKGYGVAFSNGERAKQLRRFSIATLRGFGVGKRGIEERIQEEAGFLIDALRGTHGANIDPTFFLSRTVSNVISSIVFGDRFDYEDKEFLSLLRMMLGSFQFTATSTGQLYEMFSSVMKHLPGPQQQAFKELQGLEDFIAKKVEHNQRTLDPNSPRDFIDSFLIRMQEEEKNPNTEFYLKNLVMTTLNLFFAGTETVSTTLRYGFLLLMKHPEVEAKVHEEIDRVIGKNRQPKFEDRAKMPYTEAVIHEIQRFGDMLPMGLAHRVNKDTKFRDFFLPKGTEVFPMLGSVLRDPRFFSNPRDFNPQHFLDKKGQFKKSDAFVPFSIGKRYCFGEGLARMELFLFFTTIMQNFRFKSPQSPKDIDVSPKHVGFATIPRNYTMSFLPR
Description: Time-dependent inhibition, recombinant CYP2A13 system, coumarin hydroxylase readout. The class given is biochemical. From the text:
The above-discussed approach regarding evaluation of selectivity, potency and inhibition parameters of human CYP2A6 by t-CA and structural analogs thereof may be similarly applied to evaluation of the same parameters with regard to CYP2A13.

Data set [8] deals with T1, CYP2A6. Description: IC50 for inhibition of CYP2A6, coumarin hydroxylase activity (7-hydroxycoumarin fluorescence). To be noted: Table 1B, structural analogs of CA.
Description: as §2
Data was fit using GraphPad Prism.
The target in data set [9] is T2, CYP2A6. Description: Spectral ligand binding (KS) to purified CYP2A6 expressed in Escherichia coli. The settings on record: read-out: Ks.
Description: as §3, §4
For data set [10], the target named is T4, CYP2A6-mediated nicotine metabolism (Homo sapiens, UniProt P11509).
T4 sequence (P11509 1-494): T1 sequence (P11509 1-494)
Description: Model (Equation 2) predicting change in nicotine AUC from mechanism-based inhibition parameters. The settings on record: Table 5, predicted nicotine AUC.

Where [11] appears, read: recombinant CYP2A6, probe coumarin.

As for `O=C/C=C/c1c(F)cccc1F` [2,6-difluoro-CA, 2,6-difluorocinnamaldehyde], the “Log P” value in data set [1] is 2.3. Moreover, in [2] (setting [11]), the inactivation rate constant (kinact) is 0.00407 s⁻¹ and the kinact/KI was 86.2 M⁻¹ s⁻¹. Besides, inhibition in data set [3] was half-maximal at 3.9 µM (IC50). Also, the Kd in data set [4] is 7.8 µM. This molecule also had a Ki in [5] of 47.2 µM. For the same molecule, in data set [6], the “Fold difference (with respect to CA)” value turned out to be 3.6 and the “time-dependent inhibition of CYP2A6, result in words” value (“time-dependent inhibition of CYP2A6” below) was “more potent inhibitors than t-CA”.
In the case of `O=C/C=C/c1ccccc1O` [2-hydroxy-t-CA], the “time-dependent inhibition of CYP2A6” value in data set [6] is on record as “not to be time-dependent inhibitors”.
On the same count and under the same terms, to `Cc1ccccc1C=CC=O` [2-methyl-CA] belongs “not to be time-dependent inhibitors”.
Regarding `O=CC=Cc1ccccc1[N+](=O)[O-]` [2-nitro-CA, 2-nitrocinnamaldehyde], in [7], the Ki was found to be 30.9 µM, the kinact was 0.00203 s⁻¹ and the kinact/KI is 67.8 M⁻¹ s⁻¹. For the same molecule, in data set [2] (setting [11]), the kinact was 0.00372 s⁻¹ and the kinact/KI is 267 M⁻¹ s⁻¹. For the same molecule, in [3], the IC50 came out at 15.1 µM. In addition, the Kd in [4] turned out to be 47.5 µM. The Ki in [5] is 13.9 µM. Also, in data set [6], the “Fold difference (with respect to CA)” value came out at 11.2 and the “time-dependent inhibition of CYP2A6” value is on record as “more potent inhibitors than t-CA”.
As to `O=CC=Cc1cccc([N+](=O)[O-])c1` [3-nitro-CA, 3-nitrocinnamaldehyde], in [2] (setting [11]), the kinact is 0.00138 s⁻¹ and the kinact/KI is 15.5 M⁻¹ s⁻¹. Besides, in data set [3], the IC50 turned out to be 410 µM. For the same molecule, in [5], the Ki amounted to 89.6 µM. Moreover, the “Fold difference (with respect to CA)” value in data set [6] worked out at 0.65.
In turn, `O=C/C=C/c1ccc(Br)cc1` [4-bromo-CA] displayed an IC50 in data set [8] of 58.1 µM.
Take `O=C/C=C/c1ccc(Cl)cc1` [4-chloro-CA]: the Kd in data set [9] is 48.9 µM. In [8], the 50% inhibitory concentration (IC50) was 30.1 µM.
As to `CCN(CC)c1ccc(/C=C/C=O)cc1` [4-diethylamino-CA], inhibition in data set [8] was half-maximal at 451 µM (IC50).
With `CN(C)c1ccc(/C=C/C=O)cc1` [4-dimethylamino-CA], in [8], the half-maximal inhibitory concentration (IC50) was found to be 100 µM.
Same read-out and setting: to `O=C/C=C/c1ccc(F)cc1` [4-fluoro-CA] belongs 30.1 µM.
Turning to `O=CC=Cc1ccc([N+](=O)[O-])cc1` [4-nitro-CA, 4-nitrocinnamaldehyde], in data set [2] (setting [11]), the kinact was 0.00065 s⁻¹ and the inactivation efficiency (kinact/KI) is 7 M⁻¹ s⁻¹. This molecule displayed a half-maximal inhibitory concentration (IC50) in data set [3] of 308 µM. Besides, the Ki in data set [5] amounted to 92.1 µM. For the same molecule, the “Fold difference (with respect to CA)” value in data set [6] is 0.29.
Molecule `C/C(C=O)=C\c1ccc(C(C)(C)C)cc1` [4-t-butyl-α-methyl-CA] registered a 50% inhibitory concentration (IC50) in [8] of 348 µM.
Turning to `ON=CC=Cc1ccccc1` [Cinnamaldehyde oxime], in data set [3], half-maximal inhibition (IC50) required 8 µM.
Still for that read-out and setting: to `O=C(O)/C=C/c1ccccc1` [cinnamic acid, reference compound] belongs over 2500 µM; to `OC/C=C/c1ccccc1` [cinnamic alcohol, reference compound], 354 ± 4.4 µM.
On the same count and under the same terms, to `N#CC=Cc1ccccc1` [cinnamonitrile] belongs 8.8 µM.
For `O=CCCc1ccccc1` [hydro-CA, hydrocinnamaldehyde], the AUC fold increase in data set [10] is reported as 1.71-2.67. In addition, in [2] (recombinant enzyme), the inactivation rate constant (kinact) was 0.00193 s⁻¹ and the second-order inactivation constant (kinact/KI) was 22.7 M⁻¹ s⁻¹. Moreover, in data set [3], half-maximal inhibition (IC50) required 48.3 µM. Further, in data set [4], the Kd was 44.8 µM. The Ki in data set [5] is 85 µM. In data set [6], the kinact entry is “.116 min⁻¹”; the kinact/kI is 0.001365; the “Fold difference (with respect to CA)” value is 0.96; the “time-dependent inhibition of CYP2A6” value is on record as “not to be time-dependent inhibitors”.
As to `COc1ccccc1C=CC=O` [o-methoxycinnamaldehyde, 2-methoxycinnamaldehyde], the Kd in data set [4] was found to be 1.6 µM.
With `CC(C=O)=Cc1ccccc1[N+](=O)[O-]` [o-nitro-α-methyl-CA, 2-nitro-α-methylcinnamaldehyde], in [2] (setting [11]), the inactivation rate constant (kinact) was 0.00405 s⁻¹ and the kinact/KI was 207 M⁻¹ s⁻¹. The molecule further returned a Ki in data set [5] of 19.6 µM. Moreover, in [6], the “Fold difference (with respect to CA)” value is 8.7 and the “time-dependent inhibition of CYP2A6” value is reported as “more potent inhibitors than t-CA”.
In the same order, the values of `O=CC=Cc1ccccc1C(F)(F)F` [o-trifluoromethyl-CA, 2-trifluoromethylcinnamaldehyde] are 0.00237 s⁻¹, 45 M⁻¹ s⁻¹, 52.6 µM, 1.9 and “more potent inhibitors than t-CA”.
On to `CCCCC/C(C=O)=C/c1ccccc1` [α-amyl-CA], for which the “time-dependent inhibition of CYP2A6” value in [6] is recorded as “not to be time-dependent inhibitors”. This molecule showed an IC50 in [8] of 65 µM.
For the molecule `CCCCC(C=O)=Cc1ccccc1` [α-butyl-CA], the Kd in data set [9] came to 36.8 µM. Besides, the “time-dependent inhibition of CYP2A6” value in data set [6] is recorded as “not to be time-dependent inhibitors”.
For the molecule `O=CC(Cl)=Cc1ccccc1` [α-chloro-CA, α-chlorocinnamaldehyde], in data set [10], the AUC fold increase is 2.44-4.22. Besides, in data set [2] (setting [11]), the inactivation rate constant (kinact) is 0.0025 s⁻¹ and the second-order inactivation constant (kinact/KI) was 733 M⁻¹ s⁻¹. In [3], this molecule came in with a half-inhibitory concentration (IC50) of 3.3 µM. The same molecule displayed a Kd in [4] of 9.6 µM. The Ki in data set [5] was determined as 3.4 µM. For the same molecule, in data set [6], the inactivation rate constant (kinact) result is “.15 min⁻¹”; the kinact/kI amounted to 0.04399; the “Fold difference (with respect to CA)” value is on record as 30.7; the “time-dependent inhibition of CYP2A6” value is on record as “substantially more potent time-dependent inhibitor of CYP2A6 than t-CA; also recorded: more potent inhibitors than t-CA”. In addition, the “Fold difference (with respect to CA)” value in [6] (listed as α-chloro-cinnamaldehyde) was “over 30”.
As to `CCC(C=O)=Cc1ccccc1` [α-ethyl-CA], the Kd in data set [9] worked out at 3 µM. The “time-dependent inhibition of CYP2A6” value in data set [6] is reported as “not to be time-dependent inhibitors”.
As to `O=CC(F)=Cc1ccccc1` [α-fluoro-CA], the “time-dependent inhibition of CYP2A6” value in data set [6] is listed as “not to be time-dependent inhibitors”.
As for `CCCCCC/C(C=O)=C\c1ccccc1` [α-hexyl-CA], the “time-dependent inhibition of CYP2A6” value in data set [6] is given as “not to be time-dependent inhibitors”. This molecule had a 50% inhibitory concentration (IC50) in data set [8] of 64.7 µM.
Take `CC(C)C(C=O)=Cc1ccccc1` [α-isopropyl-CA]: the Kd in [9] was 3.2 µM. In addition, the “time-dependent inhibition of CYP2A6” value in [6] is listed as “not to be time-dependent inhibitors”.
`CC(C=O)=Cc1ccccc1` [α-methyl-CA, α-methyl-cinnamaldehyde] returned an IC50 in [3] of 5.3 µM. This molecule also returned a Kd in [4] of 6.8 µM. Further, the “time-dependent inhibition of CYP2A6” value in [6] is “not to be time-dependent inhibitors”; in [6] (listed as α-methyl-cinnamaldehyde) it was “not be a time-dependent inhibitor of CYP2A6”.
`CCCC(C=O)=Cc1ccccc1` [α-propyl-CA]: the Kd in data set [9] was 7.8 µM. In addition, the “time-dependent inhibition of CYP2A6” value in data set [6] is listed as “not to be time-dependent inhibitors”.
As to `O=CC=C(c1ccccc1)c1ccccc1` [β-phenyl CA], the 50% inhibitory concentration (IC50) in data set [8] turned out to be 148 µM.
